These results are taken from patent US20100048411A1, “SUBSTRATE FOR THE GROWTH OF CULTURED CELLS IN THREE DIMENSIONS” (REINNERVATE LIMITED, priority 2006, published 2010).

Common to all, as to type: cell-based, human
The subject of data set [1] is HepG2 cells. Kind of data set: MTT viable cell number of HepG2 cells challenged with methotrexate on 2-D and 3-D substrates. The protocol:
(§1) The human hepatic carcinoma cell line, HepG2, was obtained from the American Type Culture Collection (ATCC). HepG2 cells were cultured at 37° C. in 5% CO2 in growth medium (Dulbecco's modified Eagle medium (D-MEM, Gibco/BRL) supplemented with 10% (v/v) fetal calf serum (FBS, Gibco/BRL), 100 μg.mL^−1 penicillin and 10 μg.mL^−1 streptomycin (Gibco/BRL)). Cells were passaged every 5-7 days. Confluent cultures of cells were washed with PBS, detached using trypsin/EDTA solution and cell number determined using a hemocytometer. Suspensions of HepG2 cells were then seeded at equal densities either directly into wells of a standard 6-welled plate (Nunc) or into modified well-inserts mounted with the polymer and located in wells of a 6-well plate. Cultures were maintained in growth medium which was changed every 3-4 days or as required.
The number of viable cells was determined using a commercially available calorimetric assay (Promega) based on Mosmann's original method for measuring cell activity involving the conversion of a tetrazolium salt into a blue formazan product detectable by a spectrophotometer (570 nm). The assay was performed according to the manufacturer's instructions on HepG2 cells cultured on 2-D and 3-D substrates for various periods under alternative growth conditions.
(§2) Cells were seeded on 2-D and 3-D surfaces in triplicate and left to settle and adhere for 24 hours. […] Cells were subsequently incubated for 1, 3, 7 or 10 days, after which cultures were sampled and assayed for cell number/viability and levels of albumin and transglutaminase were determined.

The test system of data set [2] is HepG2 cells. Kind of data set: albumin secretion of HepG2 cells challenged with methotrexate. On the procedure: as §1, §2
The production of albumin is often used as an indicator of hepatocyte metabolic activity. Levels of albumin were determined using a commercially available kit (Bioassay systems) based on an established method that utilizes bromocresol green which forms a coloured complex specifically with albumin that is detectable at 620 nm. Known quantities of human albumin were used to establish the standard curve. Specific levels of albumin secretion were normalized to total protein levels (as determined by a standard Bradford assay).

Data set [3] concerns HepG2 cells. Kind of data set: transglutaminase assay of HepG2 cells challenged with methotrexate. The protocol:
as §1, §2
The leakage of this enzyme is often used as a marker for in vitro toxicity testing and its presence indicates damage to cell membranes. […] The level of transglutaminase was analysed by means of a quantitative enzymatic assay (Sigma, UK) as previously described.

Data set [4] concerns HepG2 cells. The data set can be described thus: SEM and TEM morphology of HepG2 cells challenged with methotrexate. On the procedure: Cells were seeded on 2-D and 3-D surfaces in triplicate and left to settle and adhere for 24 hours. The medium was then changed and replaced with medium containing different concentrations of MTX (no MTX (vehicle alone, control), 8 μM, 31 μM, and 125 μM). Cells were subsequently incubated for 1, 3, 7 or 10 days, after which cultures were sampled and assayed for cell number/viability and levels of albumin and transglutaminase were determined.
In preparation for SEM, cells grown on 2-D or 3-D substrates were fixed in 2% paraformaldehyde and 2.5% glutaraldehyde in Sorenson's phosphate buffer for 1 hour at room temperature. Samples were then rinsed in 0.1M phosphate buffer and immersed in 1% OsO4 (aq.) solution for 1 hour, then dehydrated in 50%, 70%, 95% and 100% ethanol for 5 minutes, four times for each respective ethanol change. Samples of fixed 2-D and 3-D cultures were then cut into smaller pieces (approximately 25 mm^2), mounted on specimen holders and dried from CO2 at 38° C. at 1200 psi. The samples were then sputter coated with a 7 nm layer of chromium and examined using a Hitachi S5200 SEM.
For TEM analysis, cells grown on 3-D substrates were fixed and treated as described above for SEM. However, subsequent to dehydration and being cut into small pieces, samples were embedded in resin (Araldite CY212, Agar Scientific) for 1 hour at 37° C. and then placed into pyramidal moulds at 60° C. overnight. For the preparation of cells grown on 2-D surfaces, cultures were fixed in 2% paraformaldehyde and 2.5% glutaraldehyde in Sorenson's phosphate buffer for 1 hour at room temperature. Cells were then scrapped from tissue culture plastic and pelleted at 15,000 rpm for 10 min. Pelleted cells were subsequently rinsed in 0.1M phosphate buffer and immersed in 1% OsO4 (aq.) solution for 1 hour, then dehydrated in 50%, 70%, 95% and 100% ethanol for 5 min, for times for each respective ethanol change. The dehydrated cell pellets were then soaked in resin (Araldite CY212) for 60 min at 37° C. […]

Each structure is given as a SMILES string.

For the molecule `CN(Cc1cnc2nc(N)nc(N)c2n1)c1ccc(C(=O)N[C@@H](CCC(=O)O)C(=O)O)cc1` [MTX, methotrexate], the “cell viability (MTT absorbance)” value was “significant decrease in absorbance levels” in the data set with HepG2 cells [1] (3-D cultures, 62 μM MTX, compared to control values); “gradual increase of absorbance” in the data set on HepG2 cells [1] (HepG2 monolayers (2-D), 15 μM MTX, after 24 hours); “visibly reduced” with HepG2 cells [1] (cells on 2-D surfaces, increasing MTX concentrations); “sharp decrease in absorbance levels” with HepG2 cells [1] (monolayers (2-D), 7 days, 125 μM MTX). The “albumin secretion (metabolic activity)” value is “did begin to reduce albumin secretion” in the data set on HepG2 cells [2] (cells cultured on scaffolds (3-D), 15.6 μM MTX); “sensitive” in the data set on HepG2 cells [2] (cells grown in 2-D, 8 μM MTX); “did not significantly influence albumin secretion” with HepG2 cells [2] (cells grown in 3-D, 8 μM MTX). Moreover, the transglutaminase levels result with HepG2 cells [3] (2-D cultures, 31 μM MTX and above, versus 3-D culture) is reported as “significantly higher levels of transglutaminase”; with HepG2 cells [3] (3-D cultures, increasing concentration of MTX), “did not cause a significant increase in transglutaminase levels”. The “ultra-structure (TEM)” value with HepG2 cells [4] (2-D cultures, 8 μM MTX) is “areas of cellular necrosis were also evident”; in the data set on HepG2 cells [4] (2-D cultures, high levels of MTX) it was “most cells became necrotic”; with HepG2 cells [4] (3-D culture, 125 μM MTX), “the nuclear membrane had an irregular morphology”.
